Test results from PubChem BioAssay (NCI).
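How tested: cells in 96-well plates exposed to compound for 48 hours at five concentrations. GI50 = concentration required for 50% inhibition of growth. TGI is the concentration that stops growth completely.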

Columns and labels:
Experiment in all cases: NCI-60 cell line screen, 48 h
LOX IMVI melanoma = system: LOX IMVI melanoma
MOLT-4 leukemia = system: MOLT-4 leukemia
NCI/ADR-RES ovarian = system: NCI/ADR-RES ovarian
SN12C renal = system: SN12C renal
SK-MEL-5 melanoma = system: SK-MEL-5 melanoma
RPMI-8226 leukemia = system: RPMI-8226 leukemia
NCI-H23 lung = system: NCI-H23 lung
IGROV1 ovarian = system: IGROV1 ovarian
SR leukemia = system: SR leukemia
HCT-15 colon = system: HCT-15 colon
RXF 393 renal = system: RXF 393 renal
TK-10 renal = system: TK-10 renal
HT29 colon = system: HT29 colon
OVCAR-4 ovarian = system: OVCAR-4 ovarian
OVCAR-5 ovarian = system: OVCAR-5 ovarian
A549 NSCLC = system: A549 NSCLC
MDA-MB-435 = system: MDA-MB-435
M14 melanoma = system: M14 melanoma
NCI-H226 lung = system: NCI-H226 lung
SF-268 CNS = system: SF-268 CNS
SW-620 colon = system: SW-620 colon
UACC-62 melanoma = system: UACC-62 melanoma
UACC-257 melanoma = system: UACC-257 melanoma
U251 CNS = system: U251 CNS
CAKI-1 renal = system: CAKI-1 renal
HS 578T breast = system: HS 578T breast
SK-MEL-2 melanoma = system: SK-MEL-2 melanoma
A498 renal = system: A498 renal
NCI-H460 lung = system: NCI-H460 lung
786-0 renal = system: 786-0 renal
MCF7 breast = system: MCF7 breast
PC-3 prostate = system: PC-3 prostate
SNB-19 CNS = system: SNB-19 CNS
ACHN renal = system: ACHN renal
MDA-MB-231 breast = system: MDA-MB-231 breast
BT-549 breast = system: BT-549 breast
OVCAR-3 ovarian = system: OVCAR-3 ovarian
OVCAR-8 ovarian = system: OVCAR-8 ovarian
HCT-116 colon = system: HCT-116 colon
SK-MEL-28 melanoma = system: SK-MEL-28 melanoma
SNB-75 CNS = system: SNB-75 CNS
SK-OV-3 ovarian = system: SK-OV-3 ovarian
COLO 205 colon = system: COLO 205 colon
NCI-H522 lung = system: NCI-H522 lung
HL-60(TB) leukemia = system: HL-60(TB) leukemia
UO-31 renal = system: UO-31 renal
HCC-2998 colon = system: HCC-2998 colon
CCRF-CEM leukemia = system: CCRF-CEM leukemia
K-562 leukemia = system: K-562 leukemia
T-47D breast = system: T-47D breast
KM12 colon = system: KM12 colon
SF-539 CNS = system: SF-539 CNS
HOP-62 NSCLC = system: HOP-62 NSCLC
DU-145 prostate = system: DU-145 prostate
MALME-3M melanoma = system: MALME-3M melanoma
HOP-92 NSCLC = system: HOP-92 NSCLC
SF-295 CNS = system: SF-295 CNS

## OCc1ccc(N(CCN2CCCC2)Cc2ccc(F)cc2)cc1Cl
LOX IMVI melanoma
  GI50: 15.6 µM
  TGI: 31.5 µM
MOLT-4 leukemia
  GI50: 25.2 µM
  TGI: 62.7 µM
NCI/ADR-RES ovarian
  GI50: 18.2 µM
  TGI: 44.3 µM
SN12C renal
  GI50: 34.8 µM
  TGI: > 100 µM
SK-MEL-5 melanoma
  GI50: 15 µM
  TGI: 28.4 µM
RPMI-8226 leukemia
  GI50: 18.5 µM
  TGI: 47.4 µM
NCI-H23 lung
  GI50: 32.4 µM
  TGI: > 100 µM
IGROV1 ovarian
  GI50: 3.27 µM
  TGI: 16.8 µM
SR leukemia
  GI50: 16.1 µM
  TGI: 44.8 µM
HCT-15 colon
  GI50: 18.6 µM
  TGI: 50.1 µM
RXF 393 renal
  GI50: 23.3 µM
  TGI: 67.1 µM
TK-10 renal
  GI50: 15 µM
  TGI: 34.8 µM
HT29 colon
  GI50: 15.6 µM
  TGI: 32.8 µM
OVCAR-4 ovarian
  GI50: 11.1 µM
  TGI: > 100 µM
OVCAR-5 ovarian
  GI50: 16 µM
  TGI: 40.5 µM
A549 NSCLC
  GI50: 6.5 µM
  TGI: 27.9 µM
MDA-MB-435
  GI50: 15.9 µM
  TGI: 32.8 µM
M14 melanoma
  GI50: 14.3 µM
  TGI: 30.9 µM
NCI-H226 lung
  GI50: 1.39 µM
  TGI: 3.85 µM
SF-268 CNS
  GI50: 21 µM
  TGI: 69 µM
SW-620 colon
  GI50: 16.7 µM
  TGI: 32.9 µM
UACC-62 melanoma
  GI50: 13.9 µM
  TGI: 29.1 µM
UACC-257 melanoma
  GI50: 14.7 µM
  TGI: 29 µM
U251 CNS
  GI50: 15.5 µM
  TGI: 32.4 µM
CAKI-1 renal
  GI50: 4.15 µM
  TGI: 19.4 µM
HS 578T breast
  GI50: 20.9 µM
  TGI: 80.1 µM
SK-MEL-2 melanoma
  GI50: 17 µM
  TGI: 33 µM
A498 renal
  GI50: 1.97 µM
  TGI: 11.9 µM
NCI-H460 lung
  GI50: 3.47 µM
  TGI: 13.9 µM
786-0 renal
  GI50: 21 µM
  TGI: 66 µM
MCF7 breast
  GI50: 13.7 µM
  TGI: 32.1 µM
PC-3 prostate
  GI50: 15.6 µM
  TGI: 37 µM
SNB-19 CNS
  GI50: 25 µM
  TGI: 82.1 µM
ACHN renal
  GI50: 21.8 µM
  TGI: 72.3 µM
MDA-MB-231 breast
  GI50: 16 µM
  TGI: 38.1 µM
BT-549 breast
  GI50: 24.8 µM
  TGI: 86.8 µM
OVCAR-3 ovarian
  GI50: 19.5 µM
  TGI: 36.6 µM
OVCAR-8 ovarian
  GI50: 14 µM
  TGI: 30.3 µM
HCT-116 colon
  GI50: 13.4 µM
  TGI: 37.3 µM
SK-MEL-28 melanoma
  GI50: 15.9 µM
  TGI: 30.2 µM
SNB-75 CNS
  GI50: 12.5 µM
  TGI: 35.3 µM
SK-OV-3 ovarian
  GI50: 7.88 µM
  TGI: 31 µM
COLO 205 colon
  GI50: 8.66 µM
  TGI: 21.5 µM
NCI-H522 lung
  GI50: 16.8 µM
  TGI: 34.4 µM
HL-60(TB) leukemia
  GI50: 25.1 µM
  TGI: 64.8 µM
UO-31 renal
  GI50: 13.8 µM
  TGI: 31.2 µM
HCC-2998 colon
  GI50: 10.7 µM
  TGI: 23.8 µM
CCRF-CEM leukemia
  GI50: 23.8 µM
  TGI: 91.5 µM
K-562 leukemia
  GI50: 16.2 µM
  TGI: 40.4 µM
T-47D breast
  GI50: 19 µM
  TGI: 49.2 µM
KM12 colon
  GI50: 17.4 µM
  TGI: 34.9 µM
SF-539 CNS
  GI50: 16.4 µM
  TGI: 31.2 µM
HOP-62 NSCLC
  GI50: 17.9 µM
  TGI: 42.1 µM
DU-145 prostate
  GI50: 17.1 µM
  TGI: 39.7 µM
MALME-3M melanoma
  GI50: 22.3 µM
  TGI: 40.2 µM

## CCCN(CCSSCCNc1nc(N(C)O)nc(N(C)O)n1)c1nc(N(C)O)nc(N(C)O)n1
HOP-92 NSCLC
  GI50: 6.1 µM
  TGI: > 100 µM
LOX IMVI melanoma
  GI50: 6.63 µM
  TGI: > 100 µM
MOLT-4 leukemia
  GI50: 3.72 µM
  TGI: > 100 µM
NCI/ADR-RES ovarian
  GI50: 6.48 µM
  TGI: > 100 µM
SN12C renal
  GI50: 9.84 µM
  TGI: > 100 µM
SK-MEL-5 melanoma
  GI50: 8.65 µM
  TGI: > 100 µM
RPMI-8226 leukemia
  GI50: 4.48 µM
  TGI: > 100 µM
NCI-H23 lung
  GI50: 18 µM
  TGI: > 100 µM
IGROV1 ovarian
  GI50: 32.3 µM
  TGI: > 100 µM
SR leukemia
  GI50: 2.71 µM
  TGI: > 100 µM
HCT-15 colon
  GI50: 4.28 µM
  TGI: > 100 µM
RXF 393 renal
  GI50: 81 µM
  TGI: > 100 µM
TK-10 renal
  GI50: 3.25 µM
  TGI: > 100 µM
HT29 colon
  GI50: 7.81 µM
  TGI: > 100 µM
OVCAR-4 ovarian
  GI50: 3.29 µM
  TGI: > 100 µM
OVCAR-5 ovarian
  GI50: > 100 µM
  TGI: > 100 µM
A549 NSCLC
  GI50: 7.59 µM
  TGI: > 100 µM
MDA-MB-435
  GI50: 4.91 µM
  TGI: > 100 µM
M14 melanoma
  GI50: 5.68 µM
  TGI: > 100 µM
NCI-H226 lung
  GI50: 7.76 µM
  TGI: > 100 µM
SF-268 CNS
  GI50: 6.37 µM
  TGI: > 100 µM
SW-620 colon
  GI50: 6.72 µM
  TGI: > 100 µM
UACC-62 melanoma
  GI50: 4.39 µM
  TGI: 28.9 µM
UACC-257 melanoma
  GI50: 22.7 µM
  TGI: > 100 µM
U251 CNS
  GI50: 5.35 µM
  TGI: > 100 µM
CAKI-1 renal
  GI50: 2.47 µM
  TGI: > 100 µM
HS 578T breast
  GI50: 25.5 µM
  TGI: > 100 µM
SK-MEL-2 melanoma
  GI50: 18.6 µM
  TGI: > 100 µM
A498 renal
  GI50: 19.5 µM
  TGI: > 100 µM
NCI-H460 lung
  GI50: 3.87 µM
  TGI: > 100 µM
786-0 renal
  GI50: 3.67 µM
  TGI: > 100 µM
MCF7 breast
  GI50: 4.68 µM
  TGI: > 100 µM
PC-3 prostate
  GI50: 82.4 µM
  TGI: > 100 µM
SNB-19 CNS
  GI50: 4.15 µM
  TGI: > 100 µM
ACHN renal
  GI50: 3.92 µM
  TGI: > 100 µM
MDA-MB-231 breast
  GI50: 18.5 µM
  TGI: > 100 µM
BT-549 breast
  GI50: 7.6 µM
  TGI: > 100 µM
OVCAR-3 ovarian
  GI50: 6.42 µM
  TGI: > 100 µM
OVCAR-8 ovarian
  GI50: 5.26 µM
  TGI: > 100 µM
HCT-116 colon
  GI50: 3.97 µM
  TGI: > 100 µM
SK-MEL-28 melanoma
  GI50: 6.99 µM
  TGI: > 100 µM
SNB-75 CNS
  GI50: 24.4 µM
  TGI: > 100 µM
SK-OV-3 ovarian
  GI50: 3.16 µM
  TGI: > 100 µM
COLO 205 colon
  GI50: 2.9 µM
  TGI: > 100 µM
SF-295 CNS
  GI50: 3.56 µM
  TGI: 58.3 µM
NCI-H522 lung
  GI50: 92.1 µM
  TGI: > 100 µM
HL-60(TB) leukemia
  GI50: 3.31 µM
  TGI: > 100 µM
UO-31 renal
  GI50: 5.19 µM
  TGI: > 100 µM
HCC-2998 colon
  GI50: 4.73 µM
  TGI: > 100 µM
CCRF-CEM leukemia
  GI50: 2.24 µM
  TGI: > 100 µM
K-562 leukemia
  GI50: 15.7 µM
  TGI: > 100 µM
T-47D breast
  GI50: 7.14 µM
  TGI: > 100 µM
KM12 colon
  GI50: 6.25 µM
  TGI: > 100 µM
SF-539 CNS
  GI50: 4.05 µM
  TGI: > 100 µM
HOP-62 NSCLC
  GI50: 4.49 µM
  TGI: > 100 µM
DU-145 prostate
  GI50: 8.78 µM
  TGI: > 100 µM
MALME-3M melanoma
  GI50: 6.29 µM
  TGI: > 100 µM
